According to ChEMBL document CHEMBL2062513, “Pd-mediated functionalization of polysubstituted pyrroles: their evaluation as potential inhibitors of PDE4” (Bioorg Med Chem Lett, 2012):

Tests used:
[1] = target: 3',5'-cyclic-AMP phosphodiesterase 4B (Homo sapiens) (UniProt Q07343); assay: Inhibition of recombinant His-tagged PDE4B expressed in Sf9 cells at 30 uM preincubated for 15 mins before cAMP addition measured after 1 hr by luminescence assay
[2] = target: 3',5'-cyclic-AMP phosphodiesterase 4B (Homo sapiens) (UniProt Q07343); assay: Inhibition of recombinant His-tagged PDE4B expressed in Sf9 cells preincubated for 15 mins before cAMP addition measured after 1 hr by luminescence assay

Chain of 3',5'-cyclic-AMP phosphodiesterase 4B (Homo sapiens) (Q07343 whole entry): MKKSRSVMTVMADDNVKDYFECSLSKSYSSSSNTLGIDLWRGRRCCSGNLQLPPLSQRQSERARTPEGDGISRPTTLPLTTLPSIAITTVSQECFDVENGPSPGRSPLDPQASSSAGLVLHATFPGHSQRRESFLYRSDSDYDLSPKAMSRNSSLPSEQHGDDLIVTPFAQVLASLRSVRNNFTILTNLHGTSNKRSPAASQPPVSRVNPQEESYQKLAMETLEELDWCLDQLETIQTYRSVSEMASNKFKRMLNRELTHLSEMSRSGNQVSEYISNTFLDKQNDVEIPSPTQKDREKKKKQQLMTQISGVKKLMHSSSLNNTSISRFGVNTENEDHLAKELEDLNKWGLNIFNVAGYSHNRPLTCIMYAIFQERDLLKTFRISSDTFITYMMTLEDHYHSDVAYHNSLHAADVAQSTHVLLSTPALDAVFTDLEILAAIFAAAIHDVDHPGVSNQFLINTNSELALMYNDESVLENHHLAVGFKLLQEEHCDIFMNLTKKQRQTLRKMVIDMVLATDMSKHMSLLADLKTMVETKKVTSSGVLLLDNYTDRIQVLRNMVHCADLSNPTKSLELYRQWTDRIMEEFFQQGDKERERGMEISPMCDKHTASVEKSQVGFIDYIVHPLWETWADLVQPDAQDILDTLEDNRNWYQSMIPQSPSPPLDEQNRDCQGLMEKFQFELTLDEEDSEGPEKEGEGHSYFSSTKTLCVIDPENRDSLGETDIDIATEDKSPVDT

CCOC(=O)c1cc(-c2ccccc2)n(-c2ccc(/C=C/C(=O)OC)cc2)c1C(=O)c1ccccc1
inhibition [1]: 45.2%

CCOC(=O)c1cc(-c2ccccc2)n(-c2ccc(-c3ccc(OC)cc3)cc2)c1C(=O)c1ccccc1
inhibition [1]: 24.8%

CCOC(=O)/C=C/c1ccc(-n2c(-c3ccccc3)cc(C(=O)OCC)c2C(=O)c2ccccc2)cc1
inhibition [2]: Dose-dependent effect | inhibition [1]: 74.7%

CCCCCCC#Cc1ccc(-n2c(-c3ccccc3)cc(C(=O)OCC)c2C(=O)c2ccccc2)cc1
inhibition [1]: 22.1%

CCOC(=O)c1cc(-c2ccccc2)n(-c2ccc(/C=C/C(=O)OC(C)(C)C)cc2)c1C(=O)c1ccccc1
inhibition [1]: 36.1%

CCOC(=O)c1cc(-c2ccccc2)n(-c2ccc(/C(C)=C/C(=O)OC)cc2)c1C(=O)c1ccccc1
inhibition [2]: Dose-dependent effect | inhibition [1]: 76.7%
